pIC50: −log10 of the molar value. Starred links: 1 amine or outer side, 2 acyl side, 3 side chain; linkers in the order of their positions; H or OH if unused. Non-standard residues stand in square brackets, D forms with d. Residues, ends and D or L forms follow the SMILES beside them. *: point of attachment. DOTA = O=C(O)CN1CCN(CC(=O)O)CCN(CC(=O)*)CCN(CC(=O)O)CC1; X1 = C[C@@H](C(=O)[*:2])n1cc([C@@H](CCC(=O)O)N[*:1])nn1; X2 = O=C(Cn1cc([C@H](Cc2ccc(O)cc2)N[*:1])nn1)[*:2]; Nle = CCCC[C@H](N)C(=O)O

One test addresses T1, CCK2R (Homo sapiens, UniProt P32239).
T1 construct: expressed in transfected cells; host or cells: A431-CCK2R cells
T1 sequence (P32239 1-447): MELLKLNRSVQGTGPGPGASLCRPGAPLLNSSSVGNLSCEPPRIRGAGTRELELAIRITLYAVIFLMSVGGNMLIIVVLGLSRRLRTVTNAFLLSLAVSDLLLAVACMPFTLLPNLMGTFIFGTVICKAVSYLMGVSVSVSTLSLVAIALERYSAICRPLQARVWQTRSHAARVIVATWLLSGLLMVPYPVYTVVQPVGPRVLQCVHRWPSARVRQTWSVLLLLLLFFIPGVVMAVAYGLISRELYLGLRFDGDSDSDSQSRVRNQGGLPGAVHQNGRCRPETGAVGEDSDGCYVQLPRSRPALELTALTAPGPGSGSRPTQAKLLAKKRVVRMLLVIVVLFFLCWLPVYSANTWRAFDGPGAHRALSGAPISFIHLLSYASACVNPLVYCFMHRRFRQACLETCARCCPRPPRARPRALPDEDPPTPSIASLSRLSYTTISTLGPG
Kind of test: competition binding assay (receptor displacement of 177Lu-PP-F11N). The following applies: read-out: IC50 (95% CI); 175Lu-labeled; displacement of 177Lu-PP-F11N (2 nM) on A431-CCK2R cells. An excerpt:
Procedures for (radio)metal labeling of the DOTA–minigastrin conjugates with ^177Lu^3+ and ^natLu^3+, cell culturing of A431-CCK2R cells, cell internalization (including blocking experiments with excess minigastrin (H-LE5AYGWMDF-NH2)), competition binding assays (IC50), stability measurements in human blood plasma, and determinations of logDpH 7.4 have been reported previously for the in vitro evaluation of TZMGs and were applied to NMGs without alteration.
Figure 2 (A) Total internalization of ^177Lu-labeled conjugates (2 nM, 5 kBq) in […] cells over 4 h (n = 3–4 in triplicate). […] Data points show mean value ± standard deviation.

A further test relates to A431-CCK2R cells. Kind of test: cell binding and internalization. Type of test: cell-based. The following applies: 177Lu-labeled, % of applied radioactivity.

For `CCCC[C@H](NC(=O)[C@H](Cc1c[nH]c2ccccc12)NC(=O)Cn1cc([C@H](Cc2ccc(O)cc2)NC(=O)[C@H](C)n2cc([C@@H](CCC(=O)O)NC(=O)[C@@H](CCC(=O)O)NC(=O)[C@@H](CCC(=O)O)NC(=O)[C@@H](CCC(=O)O)NC(=O)[C@@H](CCC(=O)O)NC(=O)[C@@H](CCC(=O)O)NC(=O)CN3CCN(CC(=O)O)CCN(CC(=O)O)CCN(CC(=O)O)CC3)nn2)nn1)C(=O)N[C@@H](CC(=O)O)C(=O)N[C@@H](Cc1ccccc1)C(N)=O` [NMG 3, DOTA-(DGlu)6 -Ψ[Tz]-Ala-Tyr-Ψ[Tz]-Gly-Trp-Nle-Asp-Phe-NH2] ({DOTA}-[dE][dE][dE][dE][dE][X1][X2]W[Nle]DF-NH2), the negative-log IC50 (pIC50) (in general, the IC50 on a negative log10 scale, so that one unit is a factor of ten) at CCK2R was 8.70. In addition, the “Internalization 4 h Total (%)” value in the test on A431-CCK2R cells stood at 76.5 ± 2.8%.

The values are drawn from paper PMC8199036, “Improved Tumor-Targeting with Peptidomimetic Analogs of Minigastrin ^177Lu-PP-F11N” (Cancers, 2021).
